Experimental data published in patent US20110008463A1, “COMBINATIONS OF HYDROXYPYRION COMPOUNDS AND SILVER COMPOUNDS” (priority 2008, published 2011).

Experiments:
Chaetomium globosum = assay: Poison Plate Assay (fungi, Glucose Agar); format: cell-based; conditions: Chaetomium globosum ATCC6205, ppm total active ingredient, 27° C., growth evaluated after two weeks, label = % (I-e) + % nano-silver
Experimental: (§1) Test models: • Fungi: to each well of a 24-well microtiter plate, 1000 μl of Glucose Agar (GA: 10 g glucose, 1.5 g K2HPO4, 2 g KH2PO4, 1 g (NH4)2SO4, 0.5 g MgSO4 and 12.5 g agar in 1 liter deionised water) containing the appropriate combination of the test compounds in one of the concentrations of a dose series is added. The nutrient medium is inoculated with the test fungi by adding a spore/mycelium suspension (10 μl) or a small piece of agar from the margin of an actively growing colony and incubated under dark at 27° C. with 70% relative humidity. The growth of the fungi is evaluated after two weeks. • Glucose agar is used here instead of PDA (Potato Dextrose Agar), as an alternative, poorer medium for the fungi, in order to increase the chances of detecting activity in compounds whose mode of action might be circumvented by fungi on a […]). Moreover, a richer organic medium has more potential to complex and inactivate antibacterial silver ions (Lasater et al. 1999, Weissbuch et al. 2002). • Bacteria : to each well of a 24-well microtiter plate, 1000 μL Tryptose Agar (TA, 20 g bacto tryptose agar, 5 g sodium chloride, 1 g bacto dextrose and 15 g agar in l liter deionised water), containing the test compounds in one of the concentrations of a dose series is added. […] Growth is evaluated after five days. […]

Ulocladium atrum = assay: Poison Plate Assay (fungi, Glucose Agar); format: cell-based; conditions: Ulocladium atrum IMI214699a, ppm total active ingredient, 27° C., growth evaluated after two weeks, label = % (I-e) + % nano-silver
Experimental: as §1

Cc1cc(CC(C)CC(C)(C)C)n(O)c(=O)c1.NCCO (centres unmarked) [100 + 0, piroctone olamine]
MIC-values (minimum inhibitory concentration) in ppm (Chaetomium globosum): 3.16 ppm
MIC-values (minimum inhibitory concentration) in ppm (Ulocladium atrum): 3.16 ppm
